Assay results from patent publication US4160829A, “Antibacterial 1,2,4-oxadiazolylacetamido cephalosporins” (Gist-Brocades N.V., priority 1972, dated 1979).
Values after ≈ are worked out from the molar mass of the structure shown.

Columns and labels:
[1] = test system: Prot.morg. 2241; experiment: agar serial dilution test; assay type: cell-based; conditions: 24 h, agar serial dilution, 24 hours, 37° C.; read-out: minimal inhibitory concentration (MIC)
[2] = test system: Staph.aureus A 2001; experiment: agar serial dilution test; assay type: cell-based, Staphylococcus aureus; conditions: Staphylococcus aureus, A2001, 24 h, agar serial dilution, 24 hours, 37° C.; read-out: minimal inhibitory concentration (MIC)
[3] = test system: Staph.aureus A 355; experiment: agar serial dilution test; conditions: Staphylococcus aureus, A355, 24 h, read-out: minimal inhibitory concentration (MIC), agar serial dilution, 24 hours, 37° C.; penicillinase-producing strain
[4] = test system: Strep.haem A 1088; experiment: agar serial dilution test; assay type: cell-based, Streptococcus haemolyticus; conditions: Streptococcus, A1088, 24 hours, 37° C., read-out: minimal inhibitory concentration (MIC)
[5] = test system: Bac.Subt.ATCC 6633; experiment: agar serial dilution test; assay type: cell-based, Bacillus subtilis; conditions: Bacillus subtilis, ATCC6633, 24 h, agar serial dilution, 24 hours, 37° C.; read-out: minimal inhibitory concentration (MIC)
[6] = test system: Pseud.aerug. Wyeth A 1058; experiment: agar serial dilution test; assay type: cell-based; conditions: agar serial dilution, 24 hours, 37° C.; read-out: minimal inhibitory concentration (MIC)
[7] = test system: Staph.aureus A 2000; experiment: agar serial dilution test; assay type: cell-based, Staphylococcus aureus; conditions: Staphylococcus aureus, A2000, 24 h, agar serial dilution, 24 hours, 37° C.; read-out: minimal inhibitory concentration (MIC)
[8] = test system: Staph.aureus A 2001; experiment: micro serial dilution test; assay type: cell-based, Staphylococcus aureus; conditions: Staphylococcus aureus, A2001, 18 h, micro serial dilution (in brackets), about 18 hours, 30° C. or 37° C.; read-out: minimal inhibitory concentration (MIC)
[9] = test system: Kleb.pneum. A 809; experiment: agar serial dilution test; assay type: cell-based, Klebsiella pneumoniae; conditions: Klebsiella pneumoniae; agar serial dilution, 24 hours, 37° C.; read-out: minimal inhibitory concentration (MIC)
[10] = test system: Dipl.pneum. L 54; experiment: agar serial dilution test; assay type: cell-based, Diplococcus pneumoniae; conditions: Streptococcus pneumoniae; agar serial dilution, 24 hours, 37° C.; read-out: minimal inhibitory concentration (MIC)
[11] = test system: Prot.mirab. A 1200; experiment: micro serial dilution test; assay type: cell-based; conditions: Proteus mirabilis; micro serial dilution (in brackets), about 18 hours, 30° C. or 37° C.; read-out: minimal inhibitory concentration (MIC)
[12] = test system: Pseud.aerug. 2396; experiment: agar serial dilution test; assay type: cell-based; conditions: agar serial dilution, 24 hours, 37° C.; read-out: minimal inhibitory concentration (MIC)
[13] = test system: Sarc. lutea ATCC 9341; experiment: agar serial dilution test; assay type: cell-based; conditions: Micrococcus luteus, ATCC9341, 24 hours, 37° C., read-out: minimal inhibitory concentration (MIC)
[14] = test system: Actinob.equ. T 3; experiment: agar serial dilution test; assay type: cell-based; conditions: 24 hours, 37° C., read-out: minimal inhibitory concentration (MIC)
[15] = test system: Prot.mirab. A 1200; experiment: agar serial dilution test; assay type: cell-based, Proteus mirabilis; conditions: Proteus mirabilis, 24 h, agar serial dilution, 24 hours, 37° C.; read-out: minimal inhibitory concentration (MIC)
[16] = test system: Staph.aureus A 321; experiment: agar serial dilution test; assay type: cell-based, Staphylococcus aureus; conditions: Staphylococcus aureus, A321, 24 h, agar serial dilution, 24 hours, 37° C.; read-out: minimal inhibitory concentration (MIC)
[17] = test system: Past.multo. A 723; experiment: agar serial dilution test; assay type: cell-based, Pasteurella multocida; conditions: Pasteurella multocida; agar serial dilution, 24 hours, 37° C.; read-out: minimal inhibitory concentration (MIC)
[18] = test system: Pseud.aerug. H 10; experiment: agar serial dilution test; assay type: cell-based; conditions: agar serial dilution, 24 hours, 37° C.; read-out: minimal inhibitory concentration (MIC)
[19] = test system: Esch.coli U 20; experiment: agar serial dilution test; assay type: cell-based, Escherichia coli; conditions: Escherichia coli, U20; agar serial dilution, 24 hours, 37° C.; read-out: minimal inhibitory concentration (MIC)
[20] = test system: Prot.mirab. H 3; experiment: agar serial dilution test; assay type: cell-based, Proteus mirabilis; conditions: Proteus mirabilis; agar serial dilution, 24 hours, 37° C.; read-out: minimal inhibitory concentration (MIC)
[21] = test system: Staph.aureus A 355; experiment: micro serial dilution test; assay type: cell-based, Staphylococcus aureus; conditions: Staphylococcus aureus, A355; micro serial dilution (in brackets), about 18 hours, 30° C. or 37° C.; penicillinase-producing strain; read-out: minimal inhibitory concentration (MIC)
[22] = test system: Salm.dubl. P 43; experiment: agar serial dilution test; assay type: cell-based, Salmonella dublin; conditions: Salmonella enterica; agar serial dilution, 24 hours, 37° C.; read-out: minimal inhibitory concentration (MIC)
[23] = test system: Strep. faec. L 80; experiment: agar serial dilution test; assay type: cell-based, Streptococcus faecalis; conditions: Enterococcus faecalis; agar serial dilution, 24 hours, 37° C.; read-out: minimal inhibitory concentration (MIC)
[24] = test system: Prot.rettg. A 821; experiment: agar serial dilution test; assay type: cell-based, Proteus rettgeri; conditions: Providencia rettgeri, 24 h, agar serial dilution, 24 hours, 37° C.; read-out: minimal inhibitory concentration (MIC)
[25] = test system: Bruc. Suis A 2126; experiment: agar serial dilution test; assay type: cell-based; conditions: Brucella suis, 24 h, read-out: minimal inhibitory concentration (MIC)
[26] = test system: Prot.mirab. L 93; experiment: agar serial dilution test; assay type: cell-based, Proteus mirabilis; conditions: Proteus mirabilis; agar serial dilution, 24 hours, 37° C.; read-out: minimal inhibitory concentration (MIC)
[27] = test system: Salm.typh. R 172; experiment: agar serial dilution test; assay type: cell-based; conditions: 24 h, read-out: minimal inhibitory concentration (MIC)
[28] = test system: Staph.aureus A 2000; experiment: micro serial dilution test; assay type: cell-based, Staphylococcus aureus; conditions: Staphylococcus aureus, A2000, 18 h, micro serial dilution (in brackets), about 18 hours, 30° C. or 37° C.; read-out: minimal inhibitory concentration (MIC)

For Cc1nc(CC(=O)N[C@@H]2C(=O)N3C(C(=O)O)=C(CSc4nnnn4C)CS[C@H]23)no1 [41 B, 7-[5-methyl-1,2,4-oxadiazol-3-yl-acetamido]-3-[1-methyl-tetrazol-5-yl-mercaptomethyl]-3-cephem-4-carboxylic acid], which MIC [1] is on record?
The MIC was 100 µg/mL (≈ 221 µM).

And the MIC [2]?
Its MIC is 0.5 µg/mL (≈ 1.11 µM).

And the MIC [3]?
Its MIC is 1 µg/mL (≈ 2.21 µM).

What about the MIC [4] of the same molecule?
Its MIC is 0.5 µg/mL (≈ 1.11 µM).

What about the MIC [5] of the same molecule?
The MIC was 0.5 µg/mL (≈ 1.11 µM).

What about the MIC [6] of the same molecule?
Its MIC is 100 µg/mL (≈ 221 µM).

And the MIC [7]?
Its MIC is 1 µg/mL (≈ 2.21 µM).

And the MIC [8]?
Its MIC is 0.6 µg/mL (≈ 1.33 µM).

And the MIC [9]?
The MIC was 1 µg/mL (≈ 2.21 µM).

What about the MIC [10] of the same molecule?
Its MIC is 1.5 µg/mL (≈ 3.32 µM).

What about the MIC [11] of the same molecule?
The MIC was 5 µg/mL (≈ 11.1 µM).

What about the MIC [12] of the same molecule?
Its MIC is 100 µg/mL (≈ 221 µM).

What about the MIC [13] of the same molecule?
Its MIC is 0.5 µg/mL (≈ 1.11 µM).

And the MIC [14]?
The MIC was 0.5 µg/mL (≈ 1.11 µM).

What about the MIC [15] of the same molecule?
Its MIC is 25 µg/mL (≈ 55.3 µM).

What about the MIC [16] of the same molecule?
The MIC was 0.25 µg/mL (≈ 0.553 µM).

And the MIC [17]?
Its MIC is 1.5 µg/mL (≈ 3.32 µM).

And the MIC [18]?
Its MIC is 100 µg/mL (≈ 221 µM).

And the MIC [19]?
Its MIC is 1.5 µg/mL (≈ 3.32 µM).

And the MIC [20]?
The MIC was 12.5 µg/mL (≈ 27.6 µM).

What about the MIC [21] of the same molecule?
The MIC was 0.9 µg/mL (≈ 1.99 µM).

And the MIC [22]?
Its MIC is 1.5 µg/mL (≈ 3.32 µM).

What about the MIC [23] of the same molecule?
The MIC was greater than 100 µg/mL.

What about the MIC [24] of the same molecule?
The MIC was 0.5 µg/mL (≈ 1.11 µM).

What about the MIC [25] of the same molecule?
The MIC was 1 µg/mL (≈ 2.21 µM).

And the MIC [26]?
The MIC was 12.5 µg/mL (≈ 27.6 µM).

What about the MIC [27] of the same molecule?
Its MIC is 1.5 µg/mL (≈ 3.32 µM).

And the MIC [28]?
Its MIC is 0.6 µg/mL (≈ 1.33 µM).
